Assay results taken from PubChem BioAssay (NCI).
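Cells were grown in 96-well plates and exposed to each compound for 48 hours at five concentrations; endpoints were interpolated linearly between bracketing concentrations, or set to the highest concentration if not reached. At the TGI there is no net growth.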

Key:
Assay in all cases: NCI tumour cell line growth inhibition, 48 h
786-0 renal = test system: 786-0 renal
A498 renal = test system: A498 renal
A549 NSCLC = test system: A549 NSCLC
ACHN renal = test system: ACHN renal
CAKI-1 renal = test system: CAKI-1 renal
CCRF-CEM leukemia = test system: CCRF-CEM leukemia
COLO 205 colon = test system: COLO 205 colon
DLD-1 colon = test system: DLD-1 colon
DMS 114 small cell lung = test system: DMS 114 small cell lung
DMS 273 small cell lung = test system: DMS 273 small cell lung
EKVX NSCLC = test system: EKVX NSCLC
HCC-2998 colon = test system: HCC-2998 colon
HCT-15 colon = test system: HCT-15 colon
HL-60(TB) leukemia = test system: HL-60(TB) leukemia
HOP-18 NSCLC = test system: HOP-18 NSCLC
HOP-62 NSCLC = test system: HOP-62 NSCLC
HOP-92 NSCLC = test system: HOP-92 NSCLC
HT29 colon = test system: HT29 colon
IGROV1 ovarian = test system: IGROV1 ovarian
K-562 leukemia = test system: K-562 leukemia
KM12 colon = test system: KM12 colon
KM20L2 colon = test system: KM20L2 colon
LOX IMVI melanoma = test system: LOX IMVI melanoma
LXFL 529 NSCLC = test system: LXFL 529 NSCLC
M14 melanoma = test system: M14 melanoma
M19-MEL melanoma = test system: M19-MEL melanoma
MALME-3M melanoma = test system: MALME-3M melanoma
MOLT-4 leukemia = test system: MOLT-4 leukemia
NCI-H226 lung = test system: NCI-H226 lung
NCI-H23 lung = test system: NCI-H23 lung
NCI-H460 lung = test system: NCI-H460 lung
NCI-H522 lung = test system: NCI-H522 lung
OVCAR-3 ovarian = test system: OVCAR-3 ovarian
OVCAR-4 ovarian = test system: OVCAR-4 ovarian
OVCAR-5 ovarian = test system: OVCAR-5 ovarian
OVCAR-8 ovarian = test system: OVCAR-8 ovarian
RPMI-8226 leukemia = test system: RPMI-8226 leukemia
RXF 393 renal = test system: RXF 393 renal
RXF-631 renal = test system: RXF-631 renal
SF-268 CNS = test system: SF-268 CNS
SF-295 CNS = test system: SF-295 CNS
SF-539 CNS = test system: SF-539 CNS
SK-MEL-2 melanoma = test system: SK-MEL-2 melanoma
SK-MEL-28 melanoma = test system: SK-MEL-28 melanoma
SK-MEL-5 melanoma = test system: SK-MEL-5 melanoma
SK-OV-3 ovarian = test system: SK-OV-3 ovarian
SN12C renal = test system: SN12C renal
SNB-19 CNS = test system: SNB-19 CNS
SNB-75 CNS = test system: SNB-75 CNS
SNB-78 CNS = test system: SNB-78 CNS
SW-620 colon = test system: SW-620 colon
TK-10 renal = test system: TK-10 renal
U251 CNS = test system: U251 CNS
UACC-257 melanoma = test system: UACC-257 melanoma
UACC-62 melanoma = test system: UACC-62 melanoma
UO-31 renal = test system: UO-31 renal
XF 498 CNS = test system: XF 498 CNS
HCT-116 colon = test system: HCT-116 colon
SR leukemia = test system: SR leukemia

C[C@]12CCc3nonc3C1CC[C@@H]1C2CC[C@]2(C)C(=O)CCC12 (some centres undefined)
TGI (786-0 renal): > 100 µM | TGI (A498 renal): 78.8 µM | TGI (A549 NSCLC): 82.5 µM | TGI (ACHN renal): > 100 µM | TGI (CAKI-1 renal): 49.2 µM | TGI (CCRF-CEM leukemia): 57.8 µM | TGI (COLO 205 colon): 56.3 µM | TGI (DLD-1 colon): > 100 µM | TGI (DMS 114 small cell lung): 60 µM | TGI (DMS 273 small cell lung): 51.1 µM | TGI (EKVX NSCLC): 69.4 µM | TGI (HCC-2998 colon): 71.2 µM | TGI (HCT-15 colon): > 100 µM | TGI (HL-60(TB) leukemia): 39.2 µM | TGI (HOP-18 NSCLC): > 100 µM | TGI (HOP-62 NSCLC): > 100 µM | TGI (HOP-92 NSCLC): 55.3 µM | TGI (HT29 colon): 37.9 µM | TGI (IGROV1 ovarian): > 100 µM | TGI (K-562 leukemia): > 100 µM | TGI (KM12 colon): 37.4 µM | TGI (KM20L2 colon): 82.4 µM | TGI (LOX IMVI melanoma): 47.6 µM | TGI (LXFL 529 NSCLC): > 100 µM | TGI (M14 melanoma): > 100 µM | TGI (M19-MEL melanoma): 57.2 µM | TGI (MALME-3M melanoma): 65.7 µM | TGI (MOLT-4 leukemia): 61.6 µM | TGI (NCI-H226 lung): > 100 µM | TGI (NCI-H23 lung): > 100 µM | TGI (NCI-H460 lung): > 100 µM | TGI (NCI-H522 lung): 72.2 µM | TGI (OVCAR-3 ovarian): 58.7 µM | TGI (OVCAR-4 ovarian): > 100 µM | TGI (OVCAR-5 ovarian): > 100 µM | TGI (OVCAR-8 ovarian): > 100 µM | TGI (RPMI-8226 leukemia): 46.5 µM | TGI (RXF 393 renal): > 100 µM | TGI (RXF-631 renal): > 100 µM | TGI (SF-268 CNS): > 100 µM | TGI (SF-295 CNS): 83.9 µM | TGI (SF-539 CNS): 49.8 µM | TGI (SK-MEL-2 melanoma): 46.8 µM | TGI (SK-MEL-28 melanoma): > 10 µM | TGI (SK-MEL-5 melanoma): 34.2 µM | TGI (SK-OV-3 ovarian): > 100 µM | TGI (SN12C renal): > 100 µM | TGI (SNB-19 CNS): > 100 µM | TGI (SNB-75 CNS): 94.5 µM | TGI (SNB-78 CNS): > 100 µM | TGI (SW-620 colon): > 100 µM | TGI (TK-10 renal): > 10 µM | TGI (U251 CNS): > 100 µM | TGI (UACC-257 melanoma): > 10 µM | TGI (UACC-62 melanoma): 68.3 µM | TGI (UO-31 renal): 68.2 µM | TGI (XF 498 CNS): 45 µM

C/C(=N\N(C)C)C(CN1CCCCC1)C(c1ccccc1)c1c(O)c2ccccc2oc1=O (centres undefined)
TGI (786-0 renal): > 100 µM | TGI (A498 renal): > 100 µM | TGI (A549 NSCLC): > 100 µM | TGI (ACHN renal): > 100 µM | TGI (CAKI-1 renal): > 100 µM | TGI (CCRF-CEM leukemia): > 100 µM | TGI (COLO 205 colon): > 100 µM | TGI (DLD-1 colon): > 100 µM | TGI (DMS 114 small cell lung): > 100 µM | TGI (DMS 273 small cell lung): > 100 µM | TGI (EKVX NSCLC): > 100 µM | TGI (HCT-116 colon): > 100 µM | TGI (HCT-15 colon): > 100 µM | TGI (HL-60(TB) leukemia): > 100 µM | TGI (HOP-18 NSCLC): > 100 µM | TGI (HOP-62 NSCLC): > 100 µM | TGI (HT29 colon): > 100 µM | TGI (IGROV1 ovarian): > 100 µM | TGI (K-562 leukemia): > 100 µM | TGI (KM12 colon): > 100 µM | TGI (KM20L2 colon): > 100 µM | TGI (LOX IMVI melanoma): > 100 µM | TGI (LXFL 529 NSCLC): > 100 µM | TGI (M14 melanoma): > 100 µM | TGI (M19-MEL melanoma): > 100 µM | TGI (MALME-3M melanoma): > 100 µM | TGI (MOLT-4 leukemia): > 100 µM | TGI (NCI-H226 lung): > 100 µM | TGI (NCI-H23 lung): > 100 µM | TGI (NCI-H460 lung): > 100 µM | TGI (NCI-H522 lung): > 100 µM | TGI (OVCAR-3 ovarian): > 100 µM | TGI (OVCAR-4 ovarian): > 100 µM | TGI (OVCAR-5 ovarian): > 100 µM | TGI (OVCAR-8 ovarian): > 100 µM | TGI (RPMI-8226 leukemia): > 100 µM | TGI (RXF 393 renal): > 100 µM | TGI (RXF-631 renal): > 100 µM | TGI (SF-268 CNS): > 100 µM | TGI (SF-295 CNS): > 100 µM | TGI (SF-539 CNS): > 100 µM | TGI (SK-MEL-2 melanoma): > 100 µM | TGI (SK-MEL-28 melanoma): > 100 µM | TGI (SK-MEL-5 melanoma): > 100 µM | TGI (SK-OV-3 ovarian): > 100 µM | TGI (SN12C renal): > 100 µM | TGI (SNB-19 CNS): > 100 µM | TGI (SNB-75 CNS): > 100 µM | TGI (SNB-78 CNS): > 100 µM | TGI (SR leukemia): > 100 µM | TGI (SW-620 colon): > 100 µM | TGI (TK-10 renal): > 100 µM | TGI (U251 CNS): > 100 µM | TGI (UACC-257 melanoma): > 100 µM | TGI (UACC-62 melanoma): > 100 µM | TGI (UO-31 renal): > 100 µM | TGI (XF 498 CNS): > 100 µM
